Test results as given in US20210113501A1, “METHOD OF ADMINISTERING BETA-HYDROXY-BETA-METHYLBUTYRATE (HMB)” (Metabolic Technologies, Inc., priority 2009, published 2021).

System: protein degradation in muscle
Assay: Urinary 3-methylhistidine to creatinine ratio after an acute exercise bout
Assay type: in vivo, human
Procedure: Subjects: We conducted a study at the Iowa State University Health and Human Performance Laboratory; this study was approved by the Iowa State University Institutional Review Board, and was registered at ClinicalTrials.gov (NCT01150526). We recruited 12 men and 13 women between the ages of 20 and 36 from the Iowa State University community and surrounding area.
Treatments: The experimental design is depicted in FIG. 8.
Five treatments were administered as follows: Treatment 1: Placebo. This group received a placebo capsule and a placebo syringe dosage at each dosage administration. Treatment 2: CaHMB pre-exercise. This group received a CaHMB capsule and a placebo syringe dosage 30 min prior to the acute exercise bout. The remaining additional dosages during the study consisted of one placebo capsule and one placebo syringe dosage. Treatment 3: HMB-acid gel pre-exercise. This group received a placebo capsule and a syringe dosage of HMB-acid gel 30 min prior to the acute exercise bout. The remaining additional dosages during the study consisted of one placebo capsule and one placebo syringe dosage. Treatment 4: CaHMB pre- and post-exercise. This group received a CaHMB capsule and a placebo syringe dosage at all administration times during the study. Treatment 5: HMB-acid gel pre- and post-exercise. This group received a syringe dosage of HMB-acid gel and one placebo capsule at all administration times during the study.
To blind the treatments to both the researchers and subjects, each subject took a capsule and syringe dosage of supplement at each administration. The capsules contained either one gram of calcium lactate (Placebo) or one gram of calcium β-hydroxy-β-methylbutryate (CaHMB). The syringe dosages were formulated to be similar in taste and appearance and contained either 0.8 g of corn syrup (Placebo) or 0.8 g of β-hydroxy-β-methylbutryate free acid, the same amount of HMB as in the capsule dosage. The 3 daily doses provided the same total HMB dosage (2.4 g as calcium HMB in the capsules or 2.4 g as HMB free acid in the syringes).
Eccentric Exercise Bout: Subjects refrained from vigorous exercise for three days before reporting to the laboratory. All subjects were studied after an overnight fast. […] Subjects then consumed their assigned supplement and 30 minutes later the eccentric exercise session was performed. The exercise consisted of 50 maximal effort contractions of knee extensors while attempting to resist the Biodex lever arm as it moves the knee joint from full extension to 90 degrees flexion; this is similar to letting a heavy weight down slowly while in a seated position. Each contraction lasted about 2 seconds and 12 seconds were allowed between contractions. This protocol was performed on the right leg followed by the left leg. The subjects received 2 more daily dosages of treatment (placebo or HMB) with instructions to take the dosages at lunch and dinner. For the next 4 days the subjects returned to the laboratory fasted each morning, had blood taken and urine collected and then consumed the morning dosage of their supplement. The subjects were again given the 2 remaining daily supplement dosages with instructions to take them at lunch and dinner.
Serum and Urine Samples: A fasting blood sample was taken from a superficial forearm vein each morning when the subjects reported to the laboratory for testing. Additionally a clean catch urine sample was collected at this time. Serum CPK was analyzed by a commercial laboratory (Quest Diagnostics, Madison N.J.). Urine 3-Methylhistidine (3MH) was analyzed by a previously published GC/MS method (9). Urinary creatinine was analyzed by colorimetric assay (Cayman Chemical Company, Ann Arbor, Mich.). The urinary 3MH data was normalized to urinary creatinine and expressed as 3MH:creatinine ratio, μmol:mg.
Statistics: Data were analyzed using the mixed model procedure in Statistical Analysis System for Windows (Release 9.1.3, SAS Institute, Cary, N.C.). […]

CC(C)(O)CC(=O)[O-].CC(C)(O)CC(=O)[O-].[Ca+2] [CaHMB, calcium β-hydroxy-β-methylbutryate, reference compound]
3MH:Cr (Baseline, dosed pre- and post exercise (Treatments 4, 5)): 0.205 ± 0.025 µmol/mg | 3MH:Cr (Baseline, dosed pre-exercise only (Treatments 2, 3)): 0.164 ± 0.037 µmol/mg | 3MH:Cr (at 24 h, dosed pre- and post exercise (Treatments 4, 5)): 0.203 ± 0.039 µmol/mg | 3MH:Cr (at 24 h, dosed pre-exercise only (Treatments 2, 3)): 0.190 ± 0.027 µmol/mg | 3MH:Cr (at 48 h, dosed pre- and post exercise (Treatments 4, 5)): 0.220 ± 0.027 µmol/mg | 3MH:Cr (at 48 h, dosed pre-exercise only (Treatments 2, 3)): 0.240 ± 0.052 µmol/mg | 3MH:Cr (at 72 h, dosed pre- and post exercise (Treatments 4, 5)): 0.231 ± 0.037 µmol/mg | 3MH:Cr (at 72 h, dosed pre-exercise only (Treatments 2, 3)): 0.204 ± 0.058 µmol/mg | 3MH:Cr (at 96 h, dosed pre- and post exercise (Treatments 4, 5)): 0.269 ± 0.038 µmol/mg | 3MH:Cr (at 96 h, dosed pre-exercise only (Treatments 2, 3)): 0.187 ± 0.029 µmol/mg
